According to PMC2908295 (Journal of medicinal chemistry, 2010):
Square brackets hold non-standard residues; d marks the D form. Peptide text beside a SMILES is read from it. * marks the point of attachment. X1 = C[C@@H](CCC[N+](C)(C)C)C(=O)*; Tle = CC(C)(C)[C@H](N)C(=O)O

How the values were obtained:
PK analysis by LC/MS = format: in vivo; conditions: rat, iv, 1 mg/kg
rats = assay: Chung model for neuropathic pain; format: in vivo; conditions: rat, single dose of 10 mg/kg i.p., n = 5
male Sprague-Dawley rats [1] = assay: Acetic acid writhing model; format: in vivo; conditions: rat, i.v., 3% acetic acid i.p. 20 min after drug, n = 3 for all doses
[2] = PK analysis by NTR-1 binding activity in plasma; format: in vivo; conditions: rat, i.v., NTR-1 radiolabel competition assay
male Sprague-Dawley rats [3] = assay: Hypothermia assay; format: in vivo; conditions: rat
male Sprague-Dawley rats [4] = assay: Hotplate model; format: in vivo, rat
[5] = rat hotplate, morphine 5 mg/kg i.p., n ≥ 6

CC(C)C[C@H](NC(=O)[C@@H](NC(=O)[C@H](Cc1ccc(O)cc1)NC(=O)[C@@H]1CCCN1C(=O)[C@H](CCCNC(=N)N)NC(=O)[C@@H](C)CCC[N+](C)(C)C)C(C)(C)C)C(=O)O [Compound 1] (X1-RPY[Tle]L-OH; N-terminus assumed)
Tmax (PK analysis by LC/MS; in vivo): ≤ 5 min | half-life (PK analysis by LC/MS; plasma): 26.3 min | duration of maximal response, Chung model (rats): maintained for over one hour | EC50 acetic acid writhing (male Sprague-Dawley rats [1]): 0.16 mg/kg | time until plasma NTR-1 binding returned to level of non-treated animals [2]: 60 min | duration of drop in core body temperature (male Sprague-Dawley rats [3]; 10 mg/kg i.v., n ≥ 4): > 4 h | EC50 hypothermia (area under the PD curves) (male Sprague-Dawley rats [3]; i.v., rectal temperature every 15 min for 4 h, n = 3 for all doses): 0.78 mg/kg | maximum response latency (male Sprague-Dawley rats [4]; rat hotplate, comparison with hydrolysis products, cut-off 30 s): 30 s | EC50 hotplate, i.m. (male Sprague-Dawley rats [4]; rat, i.m., assessed after 60 min, n = 3 for all doses): 2.45 mg/kg | EC50 hotplate, i.p. (male Sprague-Dawley rats [4]; rat, i.p., assessed after 60 min, n = 3 for all doses): 2.00 mg/kg | EC50 hotplate, i.v. (male Sprague-Dawley rats [4]; rat, i.v., assessed after 60 min, n = 3 for all doses): 2.64 mg/kg | EC50 hotplate, s.c. (male Sprague-Dawley rats [4]; rat, s.c., assessed after 60 min, n = 3 for all doses): 3.84 mg/kg

CN1CC[C@]23c4c5ccc(O)c4O[C@H]2[C@@H](O)C=C[C@H]3[C@H]1C5 [morphine, reference compound]
maximal response (% of MPE), morphine benchmark (male Sprague-Dawley rats [4]; [5]): 100% | time of return of response to baseline (male Sprague-Dawley rats [4]; [5]): ≤ 200 min | time to reach 100% MPE (male Sprague-Dawley rats [4]; [5]): 15 to 30 min
